Data reported in patent US10278971B2, “Fluorocyclopentenylcytosine methods of use” (Rexahn Pharmaceuticals, Inc., priority 2015, dated 2019).

How the values were obtained:
Type in all cases: cell-based, human
PCFT = PCFT mediated transport of radiolabeled MTX; conditions: CEM cells, 24 hr; RX-3117 29.6 μM; DAC positive control
Source text: In this study, the following cell lines were used: (1) CCRF-CEM cells and its MTX resistant variant CEM-MTX, characterized by a deficiency of the reduced folate carrier (RFC) (Jansen G., et al., JBC 273 (1998) 30189-30198). The PCFT gene in CEM cells is highly methylated. (Gonen N., et al., BBRC 376 (2008) 787-92.); (2) CEM cells cultured in RPMI medium with 10% fetal bovine serum (FBS); and (3) A549 and SW1573 non-small cell lung cancer (NSCLC) and A2780 ovarian cancer cell lines cultured in DMEM medium with 10% FBS.
MTX transport was measured using radiolabeled MTX in CEM wild type and CEM-MTX cell lines. CEM cells have a high RFC activity. CEM-MTX are completely deficient in RFC-mediated transport. CEM cells have a highly methylated PCFT transporter and a very low PCFT mediated transport (Gonen N., et al., BBRC 376 (2008) 787-92). MTX transport at pH 7.4 is predominantly RFC mediated and less than 2% by PCFT. Folic acid was used to inhibit PCFT mediated transport. […] CEM and CEM-MTX cells were exposed to 29.6 μM RX-3117 and to 0, 19 μM aza-CdR as a positive control. MTX transport was measured after 24 hr to the drugs in a 3 minutes uptake assay using 2 μM [3′,5,′7-3H]-MTX.

DNMT1 = experiment: DNMT enzyme activity in isolated nuclei (DNA methyltransferase assay kit); conditions: A2780 nuclear extracts, 5 μM, 24 hr
Description: (§1) DNMT1 protein expression was measured by Western Blotting after exposure to RX-3117 for 24 or 48 hr. DNMT1 RNA expression was measured by real-time PCR after 24 and 48 hr exposure to RX-3117. DNMT enzyme activity was measured in isolated nuclei after exposure 1 μM RX-3117 or 5 μM aza-CdR using a DNA methyltransferase assay kit provided by EpiGentek using the ability of a CpG dinding domain to bind to methylated DNA. In A549 cells the effect of 5 μM RX-3117 on overall methylation was measured with a specific antibody against 5-methyl-cytosine. Bands on Western blots were visualized using appropriate InfraRedDye using an Odyssey InfraRed imager.

[1] = system: overall methylation of DNA; experiment: Overall methylation of DNA with antibody against 5-methyl-cytosine; conditions: A549, 5 μM, 48 hr exposure
Description: as §1

Nc1ncn([C@H]2C[C@H](O)[C@@H](CO)O2)c(=O)n1 [DAC, 5-aza-2′-deoxycytidine, reference compound]
increase of PCFT mediated transport of MTX (PCFT): 4 fold
inhibition of DNMT1 activity (DNMT1): 31%
decrease of overall methylation of DNA [1]: 9%
